Laboratory results: patent publication US11447525B2 (NIIGATA UNIVERSITY, priority 2018, dated 2022)
Non-standard residues stand in square brackets, D forms with d. Residues, ends and D or L forms follow the SMILES beside them. No end group written: not given here. *: point of attachment. 5FAM = O=C1OC2(c3ccc(O)cc3Oc3cc(O)ccc32)c2ccc(C(=O)*)cc21; NMeR = CN[C@@H](CCCNC(=N)N)C(=O)O

Test: Degradation test by human blood plasma, MALDI-TOFMS analysis
Type: in vitro ADME
Conditions: for remaining at 5 min / remaining at 10 min / remaining at 20 min / remaining at 0.5 h / remaining at 1 h / remaining at 2 h: read-out: degradation resistance (proportion of the peptide retained without degradation)
Method: Specifically, a peptide composed of the amino acid sequence represented by SEQ ID NO: 1 (hereafter sometimes referred to as “PCPP11”) was added to human blood plasma having a concentration of 50% by mass, the mixture was sampled immediately after starting the degradation test (after 0 minutes), and then after 5 minutes, after 10 minutes, after 20 minutes, after 30 minutes, after 60 minutes and after 120 minutes, and the samples were analyzed by MALDI-TOFMS (Matrix Assisted Laser Desorption/Ionization-Time Of Flight Mass Spectrometry). In Table 2, “UK” is an abbreviation for “unknown”. Further, the No. shown for each peptide in Table 2 corresponds with the numerical value recorded on the peaks of the graphs shown in FIG. 1.
Each of the peptides described above was added to human blood plasma having a concentration of 50% by mass, the resulting mixture was sampled immediately after starting the degradation test (after 0 minutes), and then after 5 minutes, after 10 minutes, after 20 minutes, after 30 minutes, after 60 minutes and after 120 minutes, and the samples were analyzed by MALDI-TOFMS. The results are shown in FIGS. 2 to 6 and Tables 4 to 6 shown below. Furthermore, the data for the degradation test by human blood plasma using PCPP11 from Reference Example 1 and the degradation tests by human blood plasma using each of the above peptides are collated in FIG. 7 and Table 7. The SEQ ID NO listed for the FAM-labeled peptide represents the SEQ ID NO of the peptide portion. Further, the No. shown for each peptide in Tables 4 to 6 corresponds with the numerical value recorded on the peaks of the graphs shown in FIGS. 2 to 6. In each table, in those cases where the numerical values are shown separated into an upper row and a lower row, the upper row value indicates the proportion (%) of peak area for two or more peptides relative to the total peak area in the MALDI-TOFMS analysis. On the other hand, the lower row value indicates the proportion (%) of each peptide when the peak area for the two or more peptides is deemed to be 100%. Moreover, for example, for the peptide No. 9 shown in Table 4, the left-side “70.0%” indicates the proportion (%) of the peptide No. 9 when the total peak area for the peptides No. 9 to 11 is deemed to be 100%, whereas the right-side “65%” indicates the proportion (%) of the peptide No. 9 relative to the total peak area in the MALDI-TOFMS analysis. This system is also used in the following tables.

[1] = 50% by mass human blood plasma, 5 min
[2] = 50% by mass human blood plasma, 10 min
[3] = 50% by mass human blood plasma, 20 min
[4] = 50% by mass human blood plasma, 30 min
[5] = 50% by mass human blood plasma, 60 min
[6] = 50% by mass human blood plasma, 120 min
[7] = 50% by mass human blood plasma, Start
[8] = LL peptide added to 50% by mass human blood plasma, 20 min
[9] = LL peptide added to 50% by mass human blood plasma, 60 min
[10] = LL peptide added to 50% by mass human blood plasma, 120 min

RRPTTWHKPGRRPTTWHKPGRRPTTWHKP [No. 12]
degradation resistance compared with the stand-alone PCPP11 and the FAM-PCPP11 (50% by mass human blood plasma): superior degradation resistance | degradation products observed (50% by mass human blood plasma, within 120 minutes of starting the test): no degradation products were observed

C[C@H](O)[C@@H](NC(=O)[C@@H](Cc1c[nH]c2ccccc12)NC(=O)[C@@H](Cc1c[nH]cn1)NC(=O)[C@@H](CCCCN)NC(=O)[C@H]1CCCN1C(=O)CNC(=O)[C@@H]1CCCN1C(=O)[C@H](CCCCN)NC(=O)[C@H](Cc1c[nH]cn1)NC(=O)[C@H](Cc1c[nH]c2ccccc12)NC(=O)[C@@H](NC(=O)[C@@H](NC(=O)[C@@H]1CCCN1C(=O)[C@H](CCCNC(=N)N)N(C)C(=O)[C@@H](N)CCCNC(=N)N)[C@@H](C)O)[C@@H](C)O)C(=O)N[C@@H](C(=O)N1CCC[C@@H]1C(=O)N[C@H](CCCNC(=N)N)C(=O)N[C@H](CCCNC(=N)N)C(=O)O)[C@H](C)O [compound 19] (H-R[NMeR]PTTWHKPG[dP][dK][dH][dW][dT][dT][dP][dR][dR]-OH; N-terminus and C-terminus assumed)
remaining at 5 min [1]: 100% | remaining at 10 min [2]: 100% | remaining at 20 min [3]: 100% | remaining at 0.5 h [4]: 100% | remaining at 1 h [5]: 100% | remaining at 2 h [6]: 100% | degradation resistance (proportion of the peptide retained without degradation) [7]: 100%

RRPTTWHKPGRRPTTWHKPGRRPTTWHKP [compound 12]
remaining at 5 min [1]: 100% | remaining at 10 min [2]: 100% | remaining at 20 min [3]: 100% | remaining at 0.5 h [4]: 100% | remaining at 1 h [5]: 100% | degradation resistance (proportion of the peptide retained without degradation) [7]: 100%

RRPTTWHKP [compound 1]
remaining at 5 min [1]: 93% | degradation resistance (proportion of the peptide retained without degradation) [7]: 100%

C[C@@H](O)[C@H](NC(=O)[C@@H](NC(=O)[C@@H]1CCCN1C(=O)[C@H](CCCNC(=N)N)NC(=O)[C@H](CCCNC(=N)N)NC(=O)CNC(=O)[C@@H]1CCCN1C(=O)[C@H](CCCCN)NC(=O)[C@H](Cc1c[nH]cn1)NC(=O)[C@H](Cc1c[nH]c2ccccc12)NC(=O)[C@@H](NC(=O)[C@@H](NC(=O)[C@@H]1CCCN1C(=O)[C@H](CCCNC(=N)N)N(C)C(=O)[C@@H](N)CCCNC(=N)N)[C@@H](C)O)[C@@H](C)O)[C@@H](C)O)C(=O)N[C@@H](Cc1c[nH]c2ccccc12)C(=O)N[C@@H](Cc1c[nH]cn1)C(=O)N[C@@H](CCCCN)C(=O)N1CCC[C@H]1C(=O)O [No. 18] (H-R[NMeR]PTTWHKPGRRPTTWHKP-OH; N-terminus and C-terminus assumed)
degradation resistance compared with the stand-alone PCPP11 and the FAM-PCPP11 (50% by mass human blood plasma): superior degradation resistance

C[C@@H](O)[C@H](NC(=O)[C@@H](NC(=O)[C@@H]1CCCN1C(=O)[C@H](CCCNC(=N)N)NC(=O)[C@H](CCCNC(=N)N)NC(=O)CNC(=O)[C@@H]1CCCN1C(=O)[C@H](CCCCN)NC(=O)[C@H](Cc1c[nH]cn1)NC(=O)[C@H](Cc1c[nH]c2ccccc12)NC(=O)[C@@H](NC(=O)[C@@H](NC(=O)[C@@H]1CCCN1C(=O)[C@H](CCCNC(=N)N)N(C)C(=O)[C@@H](N)CCCNC(=N)N)[C@@H](C)O)[C@@H](C)O)[C@@H](C)O)C(=O)N[C@@H](Cc1c[nH]c2ccccc12)C(=O)N[C@@H](Cc1c[nH]cn1)C(=O)N[C@@H](CCCCN)C(=O)N1CCC[C@H]1C(=O)O [compound 18] (H-R[NMeR]PTTWHKPGRRPTTWHKP-OH; N-terminus and C-terminus assumed)
remaining at 5 min [1]: 100% | remaining at 10 min [2]: 100% | remaining at 20 min [3]: 100% | remaining at 0.5 h [4]: 100% | remaining at 1 h [5]: 100% | remaining at 2 h [6]: 100% | degradation resistance (proportion of the peptide retained without degradation) [7]: 100%

RRPTTWHKPGRRPTTWHKPGRRPTTWHKP [Peptide 12]
remaining at 2 h [6]: 100%

RRPTTWHKPGRRPTTWHKP [compound 9]
degradation resistance (proportion of the peptide retained without degradation) [1]: 100% | remaining at 10 min [2]: 84% | remaining at 20 min [3]: 89% | remaining at 0.5 h [4]: 91% | remaining at 1 h [5]: 79% | remaining at 2 h [6]: 65% | degradation resistance (proportion of the peptide retained without degradation) [7]: 100% | proportion of peak area relative to the total peak area in the MALDI-TOFMS analysis (LL peptide added to 50% by mass human blood plasma, 5 min): 100% | proportion of each peptide when the peak area for the two or more peptides is deemed to be 100% [8]: 92.1% | proportion of peak area relative to the total peak area in the MALDI-TOFMS analysis [8]: 89% | proportion of each peptide when the peak area for the two or more peptides is deemed to be 100% (LL peptide added to 50% by mass human blood plasma, 30 min): (92.1%) | proportion of each peptide when the peak area for the two or more peptides is deemed to be 100% [9]: 82.1% | proportion of peak area relative to the total peak area in the MALDI-TOFMS analysis [9]: 79% | proportion of each peptide when the peak area for the two or more peptides is deemed to be 100% [10]: 70.0% | proportion of peak area relative to the total peak area in the MALDI-TOFMS analysis [10]: 65% | proportion of peak area relative to the total peak area in the MALDI-TOFMS analysis (LL peptide added to 50% by mass human blood plasma, Start): 100%

RRPTTWHKP [Peptide 1]
remaining at 10 min [2]: 67%

C[C@H](O)[C@@H](NC(=O)[C@@H](Cc1c[nH]c2ccccc12)NC(=O)[C@@H](Cc1c[nH]cn1)NC(=O)[C@@H](CCCCN)NC(=O)[C@H]1CCCN1C(=O)CNC(=O)[C@@H]1CCCN1C(=O)[C@H](CCCCN)NC(=O)[C@H](Cc1c[nH]cn1)NC(=O)[C@H](Cc1c[nH]c2ccccc12)NC(=O)[C@@H](NC(=O)[C@@H](NC(=O)[C@@H]1CCCN1C(=O)[C@H](CCCNC(=N)N)NC(=O)[C@@H](N)CCCNC(=N)N)[C@@H](C)O)[C@@H](C)O)C(=O)N[C@@H](C(=O)N1CCC[C@@H]1C(=O)N[C@H](CCCNC(=N)N)C(=O)N[C@H](CCCNC(=N)N)C(=O)O)[C@H](C)O [No. 15] (H-RRPTTWHKPG[dP][dK][dH][dW][dT][dT][dP][dR][dR]-OH; N-terminus and C-terminus assumed)
degradation resistance compared with the stand-alone PCPP11 and the FAM-PCPP11 (50% by mass human blood plasma): superior degradation resistance

C[C@@H](O)[C@H](NC(=O)[C@@H](NC(=O)[C@@H]1CCCN1C(=O)[C@H](CCCNC(=N)N)NC(=O)[C@H](CCCNC(=N)N)NC(=O)c1ccc2c(c1)C(=O)OC21c2ccc(O)cc2Oc2cc(O)ccc21)[C@@H](C)O)C(=O)N[C@@H](Cc1c[nH]c2ccccc12)C(=O)N[C@@H](Cc1c[nH]cn1)C(=O)N[C@@H](CCCCN)C(=O)N1CCC[C@H]1C(=O)O [compound 13] (5FAM-RRPTTWHKP-OH; C-terminus assumed)
remaining at 5 min [1]: 100% | remaining at 10 min [2]: 90% | remaining at 20 min [3]: 92% | remaining at 0.5 h [4]: 87% | remaining at 1 h [5]: 73% | degradation resistance (proportion of the peptide retained without degradation) [7]: 100% | proportion of peak area relative to the total peak area in the MALDI-TOFMS analysis (FAM-L peptide added to 50% by mass human blood plasma, 5 min): 47.2% | proportion of peak area relative to the total peak area in the MALDI-TOFMS analysis (FAM-L peptide added to 50% by mass human blood plasma, 10 min): 43.2% | proportion of peak area relative to the total peak area in the MALDI-TOFMS analysis (FAM-L peptide added to 50% by mass human blood plasma, 20 min): 45.6% | proportion of peak area relative to the total peak area in the MALDI-TOFMS analysis (FAM-L peptide added to 50% by mass human blood plasma, 30 min): 43.6% | proportion of peak area relative to the total peak area in the MALDI-TOFMS analysis (FAM-L peptide added to 50% by mass human blood plasma, 60 min): 37.4% | proportion of peak area relative to the total peak area in the MALDI-TOFMS analysis (FAM-L peptide added to 50% by mass human blood plasma, 120 min): 13.5% | proportion of peak area relative to the total peak area in the MALDI-TOFMS analysis (FAM-L peptide added to 50% by mass human blood plasma, Start): 47.6%
